# Test results from patent publication US20260209299A1, “TROP2 IMMUNOGENIC PEPTIDE” (ASTON SCIENCE INC., priority 2023, published 2026).
# Tests used:
# MDA-MB-231 cell line [1] = test: Antitumor effect of cancer vaccine and antibody-drug conjugate (ADC) in Xenograft cancer mouse model; type: in vivo, athymic Balb/C nude mice; details: peptide mix + CFA/IFA + mGM-CSF subcutaneously days 1, 8, 15, 22; Trodelvy 0.81 mg/kg intravenously Days 4 and 11
# Protocol: (§1) Five-week-old athymic Balb/C nude mice weighing 16 to 18 g were purchased and acclimated for at least 3 to 7 days.
# (§2) The MDA-MB-231 cell line, a human-derived triple-negative breast cancer cell line, was suspended at 5×10^6 cells per individual in 200 μl of a 1:1 mixture of PBS and Matrigel and injected subcutaneously into the axillary region between the right scapular area and the thoracic wall of the mouse.
# (§3) Next, the immunogenic peptide (TROP2 peptide) according to the present invention was administered subcutaneously at a dose of 100 μg per mouse on days 1, 8, 15, and 22 (the 16th day after cell transplantation was designated as Day 0, and the following day was designated as Day 1) for a total of 4 times, and the tumor size for each individual was calculated 11 times (0, 1, 4, 7, 11, 14, 18, 21, 25, 28, and 32) from Day 0 to Day 32. Then, the tumor growth change rate was calculated by comparison with the control group of each Test Group.
# In order to confirm the antitumor effect of the combination therapy of the immunogenic peptide discovered in the present invention and antibody-drug conjugate (ADC), the antitumor effect was analyzed for the following groups using the same experimental method as in Example 4. […]
# [2] = system: Type 1 helper T cells (CD4^+IFN-γ^+); test: FACS analysis of Type 1 helper T cells (CD4+IFN-γ+) after peptide treatment of PBMCs; type: cell-based, human
# Protocol: (§4) To this end, the degree of stimulation of Type 1 helper T cells (CD4^+IFN-γ^+), stimulation of interleukin 10 (IL-10)-producing regulatory T cells (CD4^+IL-10+), stimulation of regulatory T cells (CD4^+CD25^+Foxp3^+), and stimulation of Type 2 helper T cells secreting IL-4 and Th17 cells secreting IL-17 according to the treatment with the immunogenic peptide were confirmed.
# (§5) Healthy human peripheral blood mononuclear cells (PBMCs; 2,000,000 cells per well) were cultured in 96× round bottom well plates in the presence or absence of anti-CD3 (clone HIT) and peptide at the indicated ratios.
# (§6) Specifically, the peptide synthesized in Example 1 at a concentration of 10 μg/ml was cultured with 1 μg/ml of anti-CD3 in a 37° C. incubator for 72 hours. The culture medium consisted of complete RPMI1640 medium supplemented with 10% fetal bovine serum, 10 mM HEPES, 50 µM B-ME, and penicillin/streptomycin/L-glutamine. After 72 hours of culture, the cells were stimulated with Phorbol 12-myristate 13-acetate (50 ng/ml) and Ionomycine (1 μg/mL), which are intracellular cytokine secretion stimulators. To prevent cytokine secretion into the culture medium, the cells were co-stimulated with GolgiPlug, a protein transport inhibitor, at a concentration of 1/100 diluted in PBS for 6 hours in a 37° C. incubator. After stimulation, the cells were washed twice with PBS.
# (§7) To determine only the viable cells among the PBMC cells, the cells were labeled with eFlor780-conjugated Fixable Viability dye diluted 1:100 in PBS for 15 minutes at 4° C., and washed twice with stain buffer after 15 minutes. After washing, the cells were surface-labeled with BV421-conjugated anti-CD4 (clone RPA-T4) and PE-Cy5-conjugated anti-CD25 (clone 2A3) antibodies diluted 1:100 in stain buffer for 30 minutes at 4° C. Then, the cells labeled with cell surface proteins were washed twice with stain buffer. Next, to detect cytokines secreted intracellularly, the cells were fixed for 1 hour at room temperature with fixation buffer and then washed with permeabilization buffer. To enable antibodies to detect intracellular cytokines, the fixed cells were labeled overnight at 4° C. with PerCP-Cy5. 5-conjugated anti-IFN-g (clone 4S. B3), Brilliant Violet 510-conjugated anti-IL-4 (clone MP4-25D2), anti-Foxp3 (clone PCH101), and PE-conjugated anti-IL-10 diluted 1:100 in permeabilization (clone JES3-19F1) buffer. Then, the cytokine-labeled cells were washed twice with stain buffer, and cell flow assays were performed using an Attune NxT Acoustic Focusing Cytometer (Invitrogen). Data analysis was performed using Flowjo v10.7.1 software (FlowJo).
# 1) Calculate the difference between the distribution of IFN-γ secreting T cells and the distribution of IL-10 secretion (A value),
# 2) Calculate the difference between the distribution of IFN-γ secreting T cells and the Treg distribution (B value),
# 3) Use the formula “(A value×0.8)+(B value×0.2)” as the final combined scoring, and
# (§8) The activity results of the immunogenic peptide candidate group were confirmed by first isolating CD4^+ T cells (helper T cells) from PBMCs, and then classifying the isolated cells into Type 1 helper T cells (CD4^+IFN-γ^+), Type 2 helper T cells (CD4^+IL-4^+), regulatory T cells (CD4^+CD25^+Foxp3^+), and interleukin-10 (IL-10)-producing regulatory T cells (CD4^+IL-10^+) and analyzing the results.
# [3] = system: interleukin 10 (IL-10)-producing regulatory T cells (CD4^+IL-10^+); test: FACS analysis of IL-10-producing regulatory T cells (CD4+IL-10+) after peptide treatment of PBMCs; type: cell-based; details: healthy human PBMCs, peptide 10 μg/ml with 1 μg/ml anti-CD3, 72 hours, then PMA/ionomycin + GolgiPlug 6 hours
# Protocol: as §5, §6, §7
# [4] = system: regulatory T cells (CD4^+CD25^+Foxp3^+); test: FACS analysis of regulatory T cells (CD4+CD25+Foxp3+) after peptide treatment of PBMCs; type: cell-based; details: healthy human PBMCs, peptide 10 μg/ml with 1 μg/ml anti-CD3, 72 hours, then PMA/ionomycin + GolgiPlug 6 hours
# Protocol: as §4, §5, §6, §7, §8
# [5] = system: Type 2 helper T cells (CD4^+IL-4^+); test: FACS analysis of Type 2 helper T cells (CD4+IL-4+) after peptide treatment of PBMCs; type: cell-based, human; details: FIG. 2; peptide together with PMA, ionomycin
# Protocol: as §4, §5, §6
# as §7, with “(FlowJo). […]” for “(FlowJo).”
# [6] = system: interferon-gamma (IFN-γ)-forming T cells; test: ELISpot assay of IFN-γ-forming T cells using PBMC; type: cell-based; details: FIG. 5; human PBMCs, peptide 10 μg/mL, 70-72 hours
# Protocol: The frequency of interferon-gamma (IFN-γ, 3420-4HPW-10, MabTech, Stockholm, Sweden) and interleukin-10 (IL-10, 3430-4HPW-10, MabTech)-forming T cells was assessed using the ELISpot assay.
# Specifically, the pre-coated plates were washed four times with 200 μL/well of PBS. Human PBMCs (PCS-800-011, ATCC, Virginia, USA) 2×10^6/mL were dispensed onto the coated plate, and TROP2 peptides were dispensed at 10 μg/mL each and reacted with the PBMCs. The plate reacted under a total volume of 200 μL/well was incubated at 5% CO2, 37° C. for 70-72 hours. Then, the plate was washed 5 times with 200 μL of PBS, and 200 μL of diluted detection antibody (IFN-γ:7-B6-1-biotin; IL-10:12G8-biotin) was added to the wells of the plate, and then reacted at room temperature for 2 hours. After the reaction, the plate was washed 5 times with 200 μL of PBS, and 1:1000 diluted streptavidin-HRP was added at 100 μL/well, followed by reaction at room temperature for 1 hour. Then, the resulting product was washed 5 times with 200 μL of PBS, 100 μL/well of TMB substrate solution was added and reacted at RT for up to 5-10 minutes, and then the spots were counted using the AID iSpot reader system (AID, Strassberg, Germany).
# MDA-MB-231 cell line [7] = test: Antitumor effect of cancer vaccine alone in Xenograft cancer mouse model; type: in vivo, athymic Balb/C nude mice; details: peptide + CFA/IFA + mGM-CSF, 100 μg per mouse subcutaneously on days 1, 8, 15, 22; vs control group G1
# Protocol: as §1, §2
# On Day 16 after MDA-MB-231 cell transplantation, 32 mice (mean tumor size 143.8±2.9 mm^3) with tumor sizes reaching approximately 150 mm^3 were selected and assigned to each group of 8 mice.
# Each group was divided into Group 1 (G1): PBS+CFA/IFA, Group 2 (G2): SEQ ID NO: 3 peptide+CFA/IFA+mGM-CSF, Group 3 (G3): SEQ ID NO: 10 peptide+CFA/IFA+mGM-CSF, and Group 4 (G4): SEQ ID NO: 17 peptide+CFA/IFA+mGM-CSF.
# as §3
Substance,TGI rate (%) at Day 32 (MDA-MB-231 cell line [1]) [%],Combined Score ([2]; (A value×0.8)+(B value×0.2)),IFN-gamma − IL-10 ([2]; A value: difference between distribution of IFN-γ secreting T cells and distribution of IL-10 secretion) [%],IFN-gamma − Treg ([2]; B value: difference between distribution of IFN-γ secreting T cells and Treg distribution) [%],"IFN-gamma (Th1, CD4+) ([2]; FACS, healthy human PBMCs, peptide 10 μg/ml with 1 μg/ml anti-CD3, 72 hours, then PMA/ionomycin + GolgiPlug 6 hours) [%]","stimulation of Type 1 helper T cells (CD4+IFN-γ+), flow cytometry plot ([2]; FIG. 1, peptide together with PMA, ionomycin)","effect of stimulating Type 1 helper T cells while not stimulating Type 2 helper T cells and regulatory T cells ([2]; overall FACS conclusion, Table 2)","IL-10 (Th2, CD4+) [3] [%]",Treg (CD25+/Foxp3) [4] [%],"stimulation of Type 2 helper T cells (CD4+IL-4+), flow cytometry plot [5]",number of cells secreting IFN-γ (ELISpot spots) [6],TGI rate (%) at Day 32 (MDA-MB-231 cell line [7]) [%]
sacituzumab govitecan [Trodelvy],46.1,,,,,,,,,,,
ELRONTSQKAAGDVD (ELRQNTSQKAAGDVD) [SEQ ID NO: 17],,20.02,21.27,15.03,23.20,stimulated Type 1 helper T cells (CD4^+IFN-γ^+) to a high degree,most excellent,1.93,8.17,hardly stimulated Type 2 helper T cells (CD4^+IL-4^+),dramatically increased the secretion of IFN-γ,57.2
